Source: PMC10496123, “Potent Antifungal Activity of Penta-O-galloyl-β-D-Glucose against Drug-Resistant Candida albicans, Candida auris, and Other Non-albicans Candida Species” (ACS Infectious Diseases, 2023)
≈ marks a conversion by molar mass, not a printed value. Entries after “also recorded” stand apart in the source; their conditions may differ.

How the values were obtained:
[1] = test system: Candida albicans; experiment: Growth inhibition by CLSI microbroth dilution; type: cell-based; settings: for MIC / IC50: Candida albicans, 48 h; for MIC: >90% growth inhibition
[2] = test system: Candida parapsilosis; experiment: Growth inhibition by CLSI microbroth dilution; type: cell-based; settings: for IC50 / MIC: 48 h; for IC50: >50% growth inhibition; for MIC: >90% growth inhibition
[3] = test system: Candida auris; experiment: Growth inhibition by CLSI microbroth dilution; type: cell-based; settings: Candidozyma auris, 48 h
[4] = test system: C. albicans wild type (CAF2-1) and cdr1Δ/Δ cdr2Δ/Δ mdr1Δ/Δ flu1Δ/Δ; experiment: microbe, parasite or virus in culture; type: cell-based, Candida albicans; settings: for MIC90: Candida albicans, 72 h, RPMI-1640, 72 h, 30 °C, OD600
[5] = test system: C. albicans wild type (SN95, SN152) and ire1Δ/Δ, hap43Δ/Δ, rim101Δ/Δ; experiment: microbe, parasite or virus in culture; type: cell-based, Candida albicans; settings: for MIC90: Candida albicans, 48 h, 30 °C
[6] = test system: C. albicans; experiment: Ergosterol binding assay (growth inhibition with exogenous ergosterol); type: cell-based, Candida albicans; settings: 80 μg mL^–1 exogenous ergosterol, 1×–4× MIC, 24 h
Protocol: Ergosterol binding was measured using a previously described method,[60] with some modifications. Briefly, ergosterol (TCI) was pulverized with a sterile pestle and mortar and then dissolved in 100% ethanol. The resultant emulsion was warmed at 37 °C for 15 min and then sonicated for 45 min prior to use. […] The negative control was untreated culture. A media blank was used to monitor for contamination. Experiments were repeated in triplicate with three technical replicates per treatment and on different days. page 5: Figure S4. Growth inhibition of penta-O-galloyl-β-D-glucose against C. albicans not affected by additional ergosterol. C. albicans was treated with PGG or […] mL-1). After 24 hours, treatment groups were measured for growth inhibition. The data are plotted as mean % growth inhibition ± SD as compared to vehicle controls from three independent experiments . Dotted line represents 90% growth inhibition . S5 (1 picture or pasted object on this page, not shown here)

[7] = test system: C. auris CDC381; experiment: Iron supplementation growth inhibition assay; type: cell-based, Candida auris; settings: 10 mM iron (II) or iron (III); PGG 4–16 μg mL^–1; 48 h
Protocol: For iron supplementation assays, growth inhibition assays were performed by microbroth dilution following the guidelines set by the CLSI.[58] A solution of iron (II) sulfate and iron (III) sulfate (VWR) was dissolved in deionized water to a concentration of 10 mM and added to treated wells at the beginning of incubation. Growth inhibition was measured after 48 h. Percent growth inhibition was determined by comparing treatments to vehicle controls. Iron supplementation experiments were repeated in duplicate with three technical replicates per treatment and on different days.

[8] = test system: drug-sensitive C. albicans; experiment: Growth inhibition in fungal growth media with 10% FBS; type: cell-based, Candida albicans; settings: 10% fetal bovine serum; concentrations up to 512 μg mL^–1; data not shown
[9] = test system: HCT-116 cells; design: method as in PMID 27196315, PMID 29778287; settings: inhibition of proliferation; cited from earlier work
[10] = test system: MDA-MB-231; design: method as in PMID 33707603; settings: induction of apoptosis; cited from earlier work
[11] = test system: MDA-MB-468; design: method as in PMID 33707603; settings: induction of apoptosis; cited from earlier work
[12] = test system: influenza A; design: method as in PMID 35033970; settings: interference with viral replication; cited from earlier work
[13] = test system: Acinetobacter baumanii; design: method as in PMID 32948818; settings: 21 daily passages; cited from earlier work
[14] = test system: rats; settings: up to 120 mg/kg/day intravenously in rats; cited from earlier work
[15] = test system: humans; settings: balloon catheter, 3 mg/mL over 25 mL; cited from earlier work
[16] = cited from earlier work
[17] = after oral administration in mice; cited from earlier work

Work on `O=C(OC[C@H]1O[C@@H](OC(=O)c2cc(O)c(O)c(O)c2)[C@H](OC(=O)c2cc(O)c(O)c(O)c2)[C@@H](OC(=O)c2cc(O)c(O)c(O)c2)[C@@H]1OC(=O)c1cc(O)c(O)c(O)c1)c1cc(O)c(O)c(O)c1` [PGG, penta-O-galloyl-β-D-glucose] yielded an MIC ([1]; ATCC90028, strain ATCC 90028) of 1 mg/L (≈ 1.06 µM), an IC50 ([1]; ATCC90028, strain ATCC 90028, lowest concentration with >50% growth inhibition) of 0.5 mg/L (≈ 0.532 µM) and an IC50 ([1]; strain MH12, >50% growth inhibition) of 0.25 mg/L (≈ 0.266 µM). For the same molecule, the MIC ([1]; strain MH12) was 0.5 mg/L (≈ 0.532 µM), the “MIC (range over strains)” value ([1]; two strains of C. albicans) was 0.5 to 1.0 μg mL^–1 and the IC50 ([2]; strain AR Bank #0335) was 1 mg/L (≈ 1.06 µM). The MIC ([2]; strain AR Bank #0335) was 4 mg/L (≈ 4.25 µM), the IC50 ([2]; strain AR Bank #0337) was 0.5 mg/L (≈ 0.532 µM) and the MIC ([2]; strain AR Bank #0337) was 0.5 mg/L (≈ 0.532 µM). For the same molecule, the IC50 ([2]; strain AR Bank #0338) was 0.25 mg/L (≈ 0.266 µM), the MIC ([2]; strain AR Bank #0338) was 0.5 mg/L (≈ 0.532 µM) and the IC50 ([2]; strain AR Bank #0339) was 0.5 mg/L (≈ 0.532 µM). The MIC ([2]; strain AR Bank #0339) was 1 mg/L (≈ 1.06 µM), the “MIC (range over strains)” value ([2]; four strains of C. parapsilosis) was 0.5 to 4.0 μg mL^–1 and the MIC ([3]; strain AR Bank #0381, >90% growth inhibition) was 0.25 mg/L (≈ 0.266 µM). For the same molecule, the IC50 ([3]; strain AR Bank #0387, >50% growth inhibition) was 0.5 mg/L (≈ 0.532 µM), the MIC ([3]; strain AR Bank #0387, >90% growth inhibition) was 1 mg/L (≈ 1.06 µM) and the IC50 ([3]; strain AR Bank #0390, >50% growth inhibition) was 4 mg/L (≈ 4.25 µM). The MIC ([3]; strain AR Bank #0390, >90% growth inhibition) was 8 mg/L (≈ 8.5 µM), the MIC90 ([4]; Wild type (CAF2-1)) was greater than 5 mg/L and the MIC90 ([4]; cdr1Δ/Δ cdr2Δ/Δ mdr1Δ/Δ flu1Δ/Δ) was greater than 5 mg/L. For the same molecule, the “Effect of absence of major efflux pumps (CDR1, CDR2, FLU1, MDR1) on sensitivity” value ([4]; mutant versus wild type) was “did not modify sensitivity”, the MIC90 ([5]; Wild type (SN95)) was greater than 20 mg/L and the MIC90 ([5]; Wild type (SN152)) was greater than 20 mg/L. The MIC90 ([5]; hap43Δ/Δ) was 0.625 mg/L (≈ 0.664 µM), the MIC90 ([5]; ire1Δ/Δ) was 0.625 mg/L (≈ 0.664 µM) and the MIC90 ([5]; rim101Δ/Δ) was 0.625 mg/L (≈ 0.664 µM). For the same molecule, the “Effect of deletion of IRE1, HAP43 and RIM101 on sensitivity” value ([5]; mutants versus wild type) was “hypersensitive; also recorded: hypersensitivity”, the “Growth inhibitory activity with additional ergosterol” value [6] was “not affected” and the “Reduction of the growth inhibitory activity on iron supplementation” value [7] was 80–100%. For the same molecule, the “Growth inhibition in serum-supplemented medium” value [8] was “loss of growth inhibition”, the IC50/EC50 [9] was 1.61 µM and the IC50/EC50 [10] was 50.23 µM. For the same molecule, the IC50/EC50 [11] was 35.72 µM, the IC50/EC50 [12] was 5.3 mg/L (≈ 5.63 µM) and the Development of resistance [13] was “did not develop resistance”. For the same molecule, the Tolerability [14] was “no ill effects”, the Safety in humans [15] was “safely” and the Efflux ratio [16] was “high efflux ratio”. For the same molecule, the Detection in plasma [17] was “could not be detected”.
